According to BindingDB's records for doi:10.1016/j.bmcl.2012.10.009 (Abbott Laboratories, 2012):

Test: Inhibition of PLK1 in human MIAPaCa2 cells after 48 hrs by MTT assay

| Structure (SMILES) | EC50 [nM] |
| --- | --- |
| CC(C)(C)Nc1c(Nc2ccnc(Nc3ccc4c(c3)Cc3ccccc3-4)n2)c(=O)c1=O | > 30000 |
| CC(C)(C)Nc1c(Nc2ccnc(Nc3ccc(-c4ccccc4)cc3)n2)c(=O)c1=O | > 30000 |
| CC(C)(C)Nc1c(Nc2ccnc(Nc3ccc(-c4csnn4)cc3)n2)c(=O)c1=O | 8320 |
| CC(C)(C)Nc1c(Nc2ccnc(Nc3ccc4ncsc4c3)n2)c(=O)c1=O | 2860 |
| CC(C)(C)Nc1c(Nc2ccnc(Nc3ccc(N4CCOCC4)cc3)n2)c(=O)c1=O | 8890 |
| CC(C)(C)Nc1c(Nc2ccnc(Nc3ccc(-c4cccnc4)cc3)n2)c(=O)c1=O | 2550 |

More lines, in order of falling EC50, values ahead:

| EC50 [nM] | Structure (SMILES) |
| --- | --- |
| 8280 | CC(C)(C)Nc1c(Nc2ccnc(Nc3ccc(-c4ccccn4)cc3)n2)c(=O)c1=O |
| 5000 | CC(C)(C)Nc1c(Nc2ccnc(Nc3ccc4c(c3)[nH]c3ccccc34)n2)c(=O)c1=O |
| 2860 | CC(C)(C)Nc1c(Nc2ccnc(Nc3ccc4c(c3)CCO4)n2)c(=O)c1=O |
| 1610 | CC(C)(C)Nc1c(Nc2ccnc(Nc3ccc(-c4cn[nH]c4)cc3)n2)c(=O)c1=O |
| 1470 | CC(C)(C)Nc1c(Nc2ccnc(Nc3ccc4[nH]ncc4c3)n2)c(=O)c1=O |
| 1470 | CC(=O)N1CCc2cc(Nc3nccc(Nc4c(NC(C)(C)C)c(=O)c4=O)n3)ccc21 |
| 1050 | CC(C)(C)Nc1c(Nc2ccnc(Nc3ccc(-c4ccncc4)cc3)n2)c(=O)c1=O |
